Experimental data taken from patent US9242984B2, “Pyrazolyl derivatives as Syk inhibitors” (Merck Sharp & Dohme Corp., priority 2012, dated 2016).

Target: T1, recombinant human Syk (GST-hSyk fusion protein) (Homo sapiens, UniProt P43405)
T1 construct: purchased Carna Biosciences 08-176
Test: Homogeneous Time-Resolved Fluorescence (HTRF) assay for the recombinant human Syk enzyme
Format: biochemical
Conditions: IC50 class; 10-dose titration, 25 μM ATP; read-out: rhSYK Activity
In short: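 GST-hSyk (5 pM) preincubated 10 min with compound (0.1% DMSO) in 15 mM Tris-HCl pH 7.5, 2 mM DTT; reaction started with 250 nM biotinylated peptide, 5 mM Mg, 25 μM ATP, 45 min, room temperature. EDTA quench, Eu-anti-phosphotyrosine/SA-APC HTRF read after 30 min; IC50 from 10-dose titration (10 μM–0.508 nM), four-parameter fit.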

IC50, ≤ 100 nM:
Cc1cc(Nc2cc(C(C)(F)F)ccn2)nc(-c2cnn(CC3CNC(=O)O3)c2)c1 (stereo not shown) [Example 3.86, 5-{[4-(6-{[4-(1,1-difluoroethyl)pyridin-2-yl]amino}-4-methylpyridin-2-yl)-1H-pyrazol-1-yl]methyl}-1,3-oxazolidin-2-one]
Cc1cc(Nc2cc(C(F)F)ccn2)nc(-c2cnn(C(C)C3CNC(=O)O3)c2)c1 (stereo not shown) [Example 3.87, 5-{1-[4-(6-{[4-(difluoromethyl)pyridin-2-yl]amino}-4-methylpyridin-2-yl)-1H-pyrazol-1-yl]ethyl}-1,3-oxazolidin-2-one]
Cc1cc(Nc2cc(C(F)F)ccn2)nc(-c2cnn(C(C)C3CNC(=O)O3)c2)c1 (stereo not shown) [Example 3.88, 5-{1-[4-(6-{[4-(difluoromethyl)pyridin-2-yl]amino}-4-methylpyridin-2-yl)-1H-pyrazol-1-yl]ethyl}-1,3-oxazolidin-2-one]
Cc1cc(Nc2nccc(C(F)F)n2)cc(-c2cnn(CC3CC(=O)NC34CC4)c2)c1 (stereo not shown) [Example 3.89, 7-{[4-(3-{[4-(difluoromethyl)pyrimidin-2-yl]amino}-5-methylphenyl)-1H-pyrazol-1-yl]methyl}-4-azaspiro[2.4]heptan-5-one]
Cc1cc(Nc2nccc(C(F)F)n2)cc(-c2cnn(CC3CC(=O)NC34CC4)c2)c1 (stereo not shown) [Example 3.90, 7-{[4-(3-{[4-(difluoromethyl)pyrimidin-2-yl]amino}-5-methylphenyl)-1H-pyrazol-1-yl]methyl}-4-azaspiro[2.4]heptan-5-one]
Cc1cc(Nc2nccc(C(F)F)n2)cc(-c2cnn(C(C)C3CNC(=O)O3)c2)c1 (stereo not shown) [Example 3.91, 5-{1-[4-(3-{[4-(difluoromethyl)pyrimidin-2-yl]amino}-5-methylphenyl)-1H-pyrazol-1-yl]ethyl}-1,3-oxazolidin-2-one]
Cc1cc(Nc2nccc(C(F)F)n2)cc(-c2cnn(CC3OC(=O)NC34CC4)c2)c1 (stereo not shown) [Example 3.92, 7-{[4-(3-{[4-(difluoromethyl)pyrimidin-2-yl]amino}-5-methylphenyl)-1H-pyrazol-1-yl]methyl}-6-oxa-4-azaspiro[2.4]heptan-5-one]
Cc1cc(Nc2nccc(C(F)F)n2)cc(-c2cnn(C(C)C3CNC(=O)O3)c2)c1 (stereo not shown) [Example 3.93, 5-{1-[4-(3-{[4-(difluoromethyl)pyrimidin-2-yl]amino}-5-methylphenyl)-1H-pyrazol-1-yl]ethyl}-1,3-oxazolidin-2-one]
Cc1cc(Nc2nccc(C(F)F)n2)cc(-c2cnn(CC3OC(=O)NC34CC4)c2)c1 (stereo not shown) [Example 3.94, 7-{[4-(3-{[4-(difluoromethyl)pyrimidin-2-yl]amino}-5-methylphenyl)-1H-pyrazol-1-yl]methyl}-6-oxa-4-azaspiro[2.4]heptan-5-one]
Cc1cc(Nc2nccc(C(F)F)n2)cc(-c2cnn(Cc3ccc(=O)[nH]c3)c2)c1 [Example 3.95, 5-{[4-(3-{[4-(difluoromethyl)pyrimidin-2-yl]amino}-5-methylphenyl)-1H-pyrazol-1-yl]methyl}pyridin-2(1H)-one]
Cc1cc(Nc2nccc(C(F)(F)F)n2)cc(-c2cnn(C[C@H]3COC(=O)N3)c2)c1 [Example 3.96, (4S)-4-{[4-(3-methyl-5-{[4-(trifluoromethyl)pyrimidin-2-yl]amino}phenyl)-1H-pyrazol-1-yl]methyl}-1,3-oxazolidin-2-one]
Cc1cc(Nc2nccc(C(F)(F)F)n2)cc(-c2cnn(C[C@@H]3COC(=O)N3)c2)c1 [Example 3.97, (4R)-4-{[4-(3-methyl-5-{[4-(trifluoromethyl)pyrimidin-2-yl]amino}phenyl)-1H-pyrazol-1-yl]methyl}-1,3-oxazolidin-2-one]
CC(=O)C(C)n1cc(-c2cc(C)cc(Nc3nccc(C(F)F)n3)c2)cn1 (stereo not shown) [Example 3.98, 3-[4-(3-{[4-(difluoromethyl)pyrimidin-2-yl]amino}-5-methylphenyl)-1H-pyrazol-1-yl]butan-2-one]
Cc1cc(Nc2nccc(C(F)(F)F)n2)cc(-c2cnn(CC3OC(=O)NC3(C)C)c2)c1 (stereo not shown) [Example 3.99, 4,4-dimethyl-5-{[4-(3-methyl-5-{[4-(trifluoromethyl)pyrimidin-2-yl]amino}phenyl)-1H-pyrazol-1-yl]methyl}-1,3-oxazolidin-2-one]
Cc1cc(Nc2nccc(C(F)(F)F)n2)cc(-c2cnn(CC3OC(=O)NC3(C)C)c2)c1 (stereo not shown) [Example 3.100, 4,4-dimethyl-5-{[4-(3-methyl-5-{[4-(trifluoromethyl)pyrimidin-2-yl]amino}phenyl)-1H-pyrazol-1-yl]methyl}-1,3-oxazolidin-2-one]
Cc1cc(Nc2nccc(C(C)(F)F)n2)cc(-c2cnn(CC3OC(=O)NC3(C)C)c2)c1 (stereo not shown) [Example 3.101, 5-{[4-(3-{[4-(1,1-difluoroethyl)pyrimidin-2-yl]amino}-5-methylphenyl)-1H-pyrazol-1-yl]methyl}-4,4-dimethyl-1,3-oxazolidin-2-one]
Cc1cc(Nc2nccc(C(F)F)n2)cc(-c2cnn(CC3OC(=O)NC3(C)C)c2)c1 (stereo not shown) [Example 3.102, 5-{[4-(3-{[4-(difluoromethyl)pyrimidin-2-yl]amino}-5-methylphenyl)-1H-pyrazol-1-yl]methyl}-4,4-dimethyl-1,3-oxazolidin-2-one]
Cc1cc(Nc2nccc(C(F)F)n2)cc(-c2cnn(CC3OC(=O)NC3(C)C)c2)c1 (stereo not shown) [Example 3.103, 5-{[4-(3-{[4-(difluoromethyl)pyrimidin-2-yl]amino}-5-methylphenyl)-1H-pyrazol-1-yl]methyl}-4,4-dimethyl-1,3-oxazolidin-2-one]
Cc1cc(Nc2nccc(C(C)(F)F)n2)cc(-c2cnn(CC3OC(=O)NC3(C)C)c2)c1 (stereo not shown) [Example 3.104, 5-{[4-(3-{[4-(1,1-difluoroethyl)pyrimidin-2-yl]amino}-5-methylphenyl)-1H-pyrazol-1-yl]methyl}-4,4-dimethyl-1,3-oxazolidin-2-one]
Cc1cc(Nc2nccc(C)n2)cc(-c2cnn(CC3OC(=O)NC3(C)C)c2)c1 (stereo not shown) [Example 3.105, 4,4-dimethyl-5-[(4-{3-methyl-5-[(4-methylpyrimidin-2-yl)amino]phenyl}-1H-pyrazol-1-yl)methyl]-1,3-oxazolidin-2-one]
Cc1cc(Nc2nccc(C)n2)cc(-c2cnn(CC3OC(=O)NC3(C)C)c2)c1 (stereo not shown) [Example 3.106, 4,4-dimethyl-5-[(4-{3-methyl-5-[(4-methylpyrimidin-2-yl)amino]phenyl}-1H-pyrazol-1-yl)methyl]-1,3-oxazolidin-2-one]
Cc1cc(Nc2nccc(C(F)(F)F)n2)cc(-c2cnn(CC3NC(=O)OC3C)c2)c1 (stereo not shown) [Example 3.107, 5-methyl-4-{[4-(3-methyl-5-{[4-(trifluoromethyl)pyrimidin-2-yl]amino}phenyl)-1H-pyrazol-1-yl]methyl}-1,3-oxazolidin-2-one]
Cc1cc(Nc2nccc(C(F)F)n2)cc(-c2cnn(Cc3cnc(C)[nH]3)c2)c1 [Example 3.108, 4-(difluoromethyl)-N-(3-methyl-5-{1-[(2-methyl-1H-imidazol-5-yl)methyl]-1H-pyrazol-4-yl}phenyl)pyrimidin-2-amine]
Cc1cc(Nc2nccc(C(F)F)n2)cc(-c2cnn(Cc3[nH]cnc3C)c2)c1 [Example 3.109, 4-(difluoromethyl)-N-(3-methyl-5-{1-[(4-methyl-1H-imidazol-5-yl)methyl]-1H-pyrazol-4-yl}phenyl)pyrimidin-2-amine]
Cc1cc(Nc2nccc(C(F)F)n2)cc(-c2cnn(Cc3c[nH]cn3)c2)c1 [Example 3.110, 4-(difluoromethyl)-N-{3-[1-(1H-imidazol-4-ylmethyl)-1H-pyrazol-4-yl]-5-methylphenyl}pyrimidin-2-amine]
Cc1cc(Nc2nccc(C(F)F)n2)cc(-c2cnn(CCc3cn[nH]c3)c2)c1 [Example 3.111, 4-(difluoromethyl)-N-(3-methyl-5-{1-[2-(1H-pyrazol-4-yl)ethyl]-1H-pyrazol-4-yl}phenyl)pyrimidin-2-amine]
Cc1cc(Nc2nccc(C(F)F)n2)cc(-c2cnn(CC(O)CO)c2)c1 (stereo not shown) [Example 3.112, 3-[4-(3-{[4-(difluoromethyl)pyrimidin-2-yl]amino}-5-methylphenyl)-1H-pyrazol-1-yl]propane-1,2-diol]
CCC(C)(O)Cn1cc(-c2cc(C)cc(Nc3nccc(C(F)F)n3)c2)cn1 (stereo not shown) [Example 3.113, 1-[4-(3-{[4-(difluoromethyl)pyrimidin-2-yl]amino}-5-methylphenyl)-1H-pyrazol-1-yl]-2-methylbutan-2-ol]
CCC(C)(O)Cn1cc(-c2cc(C)cc(Nc3nccc(C(F)F)n3)c2)cn1 (stereo not shown) [Example 3.114, 1-[4-(3-{[4-(difluoromethyl)pyrimidin-2-yl]amino}-5-methylphenyl)-1H-pyrazol-1-yl]-2-methylbutan-2-ol]
Cc1cc(Nc2ncccn2)cc(-c2cnn(CC3CNC(=O)O3)c2)c1 (stereo not shown) [Example 3.115, 5-({4-[3-methyl-5-(pyrimidin-2-ylamino)phenyl]-1H-pyrazol-1-yl}methyl)-1,3-oxazolidin-2-one]
Cc1cc(Nc2ncccn2)cc(-c2cnn(CC3CNC(=O)O3)c2)c1 (stereo not shown) [Example 3.116, 5-({4-[3-methyl-5-(pyrimidin-2-ylamino)phenyl]-1H-pyrazol-1-yl}methyl)-1,3-oxazolidin-2-one]
